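48-hour exposure; five concentrations; linearly interpolated endpoints. GI50: concentration for 50% inhibition of growth. The concentration for full growth arrest is given as TGI.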
Experiments:
Experiment in all cases: growth of human tumour cells (NCI), 48 h
[1] = system: A549 NSCLC
[2] = system: BT-549 breast
[3] = system: KM12 colon
[4] = system: NCI-H226 lung
[5] = system: RXF 393 renal
[6] = system: SF-295 CNS
[7] = system: SK-MEL-5 melanoma
[8] = system: CAKI-1 renal
[9] = system: SK-OV-3 ovarian
[10] = system: SN12C renal

SMILES	TGI [1] [µM]	TGI [2] [µM]	TGI [3] [µM]	TGI [4] [µM]	TGI [5] [µM]	TGI [6] [µM]	TGI [7] [µM]	TGI [8] [µM]	TGI [9] [µM]	TGI [10] [µM]	GI50 [1] [µM]	GI50 [2] [µM]	GI50 [8] [µM]	GI50 [3] [µM]	GI50 [4] [µM]	GI50 [5] [µM]	GI50 [6] [µM]	GI50 [7] [µM]	GI50 [10] [µM]	GI50 [9] [µM]
O=C(CN1CCCC1=O)CS(=O)(=O)c1ccccc1	> 100	> 100	> 100	> 100	> 100	> 100	> 100													
CCC12CCCN(Cc3ccccc3)C1c1c(n(C)c3ccccc13)C(CO)C2 (stereo not drawn)	> 257		89.4	104	> 257	64.7	76.9	> 257	194	81.2										
Cc1ccccc1NC(=O)Cc1csc(N/N=C2\NC(=O)/C(=C/c3cccc([N+](=O)[O-])c3)S2)n1	44.5		34.2	39.1		41.8	64.8	35.7	74.6	> 100										
Fc1ccc(-c2sc(-c3ccsc3)cc2Cc2ccsc2)cc1	> 10		> 10		> 10	> 10	> 10	> 10	> 10	> 10										
COc1cc(C2S/C(=C/c3ccccc3)C(=O)N2Cc2ccccc2)cc(OC)c1OC (stereo not drawn)	> 100	> 100	> 100	> 100		> 100	> 100	> 100	> 100	> 100										
CC[C@@]1(O)C[C@H](OC2CC(N(C)C)C(O)C(C)O2)c2c(cc3c(c2O)C(=O)c2c(O)ccc(O)c2C3=O)[C@H]1C(=O)OC (stereo partly drawn)	1.36		1	0.455	0.258	0.389	0.461	0.25	2.37	1.47										
COC(=O)CN(CC(=O)NCCCBr)C1CCCCC1N(CC(=O)OC)CC(=O)OC (stereo not drawn)	> 100	> 100	> 100	> 100		> 100	> 100	> 100	> 100	> 100										
CC#C[C@]1(O)CCC2[C@@H]3CCC4=CC(=O)CCC4=C3[C@@H](c3ccc(N(C)C)cc3)C[C@@]21C (stereo partly drawn)	> 100	50.7	65.2			30.1	24.6	33	72.4	52										
COc1ccccc1NC(=S)N=Nc1c(O)[nH]c2ccccc12	> 100		> 100	> 100	> 100	> 100	> 100	> 100	> 100	> 100										
Cc1cc(=O)oc2cc(OCCCOc3ccc4c(C)cc(=O)oc4c3)ccc12	> 100			> 100	> 100	> 100	> 100			> 100										
COc1ccc2c(c1)N(Cc1ccc(Cl)cc1)CCC2N1CCCC1=O (stereo not drawn)	51.5	19.6	29.3	34.5	10.9	5.08	4.61	16.7		89.1	4.48	3.23	3.49	4.84	2.89	2.77	1.67	2.05	4.68	
CCC(C)(C)c1cc(O)c(C(C)(C)CC)cc1O	11.9		12.6	15.2	7.25	5.18	5.26	7.74	14.9	16.4	3.2		2.44	3.52	3.63	2.69	2.25	2.2	3.2	4.41
CC(C)(C)N/N=C(\C(=O)Nc1cccc(Cl)c1)C1C(=O)Nc2ccccc2S1=O (stereo not drawn)	> 100		> 100	> 100	> 100	> 100	> 100	> 100	> 100	> 100										
CN(C)C(=O)Oc1c(Br)cc(Br)cc1C(=O)OCc1ccccc1	> 100		75.9	> 77.3	> 75.6	55.7	17.7	68.6	> 100	52.8										
O=c1[nH]c2ccccc2c(O)c1Cc1ccccc1	> 100	> 100	> 100	> 100	> 100	> 100	> 100	> 100		> 100										
COC(C/C(=C/CO[Si](C(C)C)(C(C)C)C(C)C)C(=O)N(C(=O)OC(C)(C)C)c1ccccc1I)OC	> 100		> 100	> 100		41	> 100	> 100	> 100	> 100										
CC1(C)OC[C@H](C(=N)OCc2ccccc2)O1	> 100		> 100	> 100	> 100	> 100	> 100	> 100	> 100	> 100										
Cc1c(C(=O)O)n2c(=S)[nH]nc2c2ccccc12	> 100		> 100	> 100	> 100	> 100	> 100	> 100	> 100	> 100										
COc1cccc2c1NC(=O)Cc1c-2[nH]c2ccccc12	> 100		> 100	> 100	> 100	> 100	> 100	> 100	> 100											
Nc1nc(Cl)cc(OCC2(CO)CCCC2)n1	> 100			> 100	> 100	> 100	> 100			> 100										
COc1cc(CC(C)=O)cc(OC)c1	> 100	> 100		> 100		> 100	> 100		> 100	> 100										
C/C=C1/CN2CCC34c5ccccc5N(C)C23C2CC1C4(C(=O)OC)C(OC(C)=O)O2 (stereo not drawn)	> 100	> 100	> 100	> 100		> 100	> 100	> 100	> 100	> 100										
Cc1ccc(/C=C/C(=O)Oc2ccc(/C=C3\CCC/C(=C\c4ccc(OC(=O)/C=C/c5ccc(C)cc5)cc4)C3=O)cc2)cc1	> 100	> 100	> 100			> 100	> 100	> 100		> 100										

SMILES	TGI [1] [µM]	TGI [2] [µM]	TGI [3] [µM]	TGI [4] [µM]	TGI [5] [µM]	TGI [6] [µM]	TGI [7] [µM]	TGI [8] [µM]	TGI [9] [µM]	TGI [10] [µM]	GI50 [1] [µM]	GI50 [2] [µM]	GI50 [8] [µM]	GI50 [3] [µM]	GI50 [4] [µM]	GI50 [5] [µM]	GI50 [6] [µM]	GI50 [7] [µM]	GI50 [10] [µM]	GI50 [9] [µM]
CCCCCCSc1nc(N)nc2nc[nH]c12	> 100		> 100	> 85.4	> 93	> 100	> 62.5		80.8	> 100										
O=C(NC(=S)Nc1ccc([N+](=O)[O-])cc1)c1ccc2c(c1)Sc1ccccc1O2	> 100	> 100	> 100	> 100		> 100	> 100	> 100	> 100	> 100										
COc1cccc2c1OC1Sc3ccccc3-c3nn(-c4ccccc4)c-2c31 (stereo not drawn)	> 100		> 100		> 100	> 100			> 100											
CC(=O)O[C@H]1C(=O)[C@@]2(C)[C@H]([C@H](OC(=O)c3ccccc3)[C@]3(O)C[C@H](OC(=O)[C@H](O)[C@@H](NC(=O)c4ccccc4)c4ccc5ccccc5c4)C(C)=C1C3(C)C)[C@]1(OC(C)=O)CO[C@@H]1C[C@@H]2O	> 42.1				1.77	1.89	12.9	> 41	0.836	17.2										
CCOC(=O)/C=C/C(=O)O/C=C/[N+](=O)[O-]			> 100	> 100	> 100	> 100	> 100	78.1	> 100	> 100										
Cn1c(-c2ccc(-c3cc(-c4cccs4)c(-c4cccs4)n3C)cc2)cc(-c2cccs2)c1-c1cccs1	> 100		> 100	> 100	> 100	> 100	> 100	> 100	> 100	> 100										
COc1ccc2c(c1)Oc1cc(O)ccc1[C@H]2c1ccccc1C(=O)NC(C)c1ccccc1 (stereo partly drawn)	31.5		36.5	38.8	42	25.9	29.2	33.7	39.3	31.6										
COc1cccc2c1C(=O)c1c(O)c3c(c(O)c1C2=O)C[C@@](O)(C(C)=O)CC3S(=O)(=O)O (stereo partly drawn)	> 100		> 100	> 100	> 100	> 100	> 100	> 100	> 100	> 100										
c1coc(-c2nccc3c2[nH]c2ccccc23)c1	> 100		> 100	95.8	> 100	> 100	> 100	> 100	> 100	> 100										
O=C1C=C(Nc2ccccc2C(=O)CC(=O)C(=O)Nc2ccc(Cl)cc2)c2ccccc2C1=O	32.4		54.6	> 56.6	45.9		15.4	> 83.4	76.1	26										
COc1ccc2nc3c([N+](=O)[O-])ccc(NCCN(C)C)c3c(N)c2c1	3.29		0.939	4.54	3.36	3.62	3.45	3.42	3.13	2.76										
O=C1c2ccccc2C(=O)N1n1c(Cc2ccc(Cl)cc2)n[nH]c1=O	> 100	> 100	> 100	> 100		> 100	> 100	> 100		> 100										
CC(C)(C)COC(=O)C(C)(C)NC(=O)C(CC(=O)OCc1ccccc1)NC(=O)OCc1ccccc1 (stereo not drawn)	> 100		> 100	85.2	> 100	> 100	29.1	> 100	> 100	75.7										
C/C(=N\Nc1nc2cc(Cl)ccc2s1)c1ccccn1	> 43.7	> 61.3	> 84.8	> 100			13.6	46	33.6	15.2										
Cn1cnc(N2CCCC2)c(C#N)c1=S	> 100		> 100	> 100	> 100	> 100	> 100	> 100		> 100										
COC(=O)[C@H](CC(C)C)NC(=O)[C@H](Cc1ccccc1)N1CC2C=CC1C2 (stereo partly drawn)	> 100		> 100	> 100	> 100	> 100	> 100	> 100	> 100	> 100										
O=C(Cc1nc2ccc(C(=O)c3ccccc3)cc2[nH]c1=O)C(=O)Nc1nc2ccccc2[nH]1	> 100		> 100			> 100	> 100	> 100	> 100	> 100										
Nn1c(Nc2ccc(S(N)(=O)=O)cc2)nnc(/C=C/c2c(O)ccc3ccccc23)c1=O	92.4	40.4	52.2			96.8	28.7	49.6	88.5	27.3										
N#Cc1c(N)oc(-c2ccc([N+](=O)[O-])cc2)c1C#N	> 100		> 100	46.5	> 100	55.3	36.4	54.7	> 100	52.1										
COC1=C[C@]2(CCC(=O)O2)[C@@H]2Cc3ccccc3[C@H](O)[C@@H]2C1=O	> 100	> 100	> 100	> 100		> 100	33.7	> 100	> 100	> 100										
O=c1cc(-c2ccccc2)[nH]c2ncccc12	> 100	> 100	15.7			0.269	> 60.6	> 100	1.89											
COC1OCC(O)C(NC(=O)N(C)N=O)C1O (stereo not drawn)	> 100		> 100	> 100	> 100	> 100	> 100	> 100	> 100	> 100										
O=C(c1ccccc1)N1CCN(C(=S)NC2CCCCC2)C1=S	30.6	44.2	30.9	36.1		54.4	34.4	62.4	65.6	40										

Reference: PubChem BioAssay (NCI)
